This is an account of results in patent US20060189673A1, “Phenylazole compound, production process therefor and antioxidant” (Nippon Soda Co., Ltd., priority 2003, published 2006).

The structures appear in SMILES notation. Where two headings read alike, the source gives them in different places. Bounds are passed on as bounds.

One assay has as its target T1, 5-lipoxygenase (5-LO) (Homo sapiens, UniProt P09917).
T1 construct: human peripheral blood mononuclear cells; endogenous in cells; host or cells: human peripheral blood mononuclear cells
T1 sequence (P09917 1-674): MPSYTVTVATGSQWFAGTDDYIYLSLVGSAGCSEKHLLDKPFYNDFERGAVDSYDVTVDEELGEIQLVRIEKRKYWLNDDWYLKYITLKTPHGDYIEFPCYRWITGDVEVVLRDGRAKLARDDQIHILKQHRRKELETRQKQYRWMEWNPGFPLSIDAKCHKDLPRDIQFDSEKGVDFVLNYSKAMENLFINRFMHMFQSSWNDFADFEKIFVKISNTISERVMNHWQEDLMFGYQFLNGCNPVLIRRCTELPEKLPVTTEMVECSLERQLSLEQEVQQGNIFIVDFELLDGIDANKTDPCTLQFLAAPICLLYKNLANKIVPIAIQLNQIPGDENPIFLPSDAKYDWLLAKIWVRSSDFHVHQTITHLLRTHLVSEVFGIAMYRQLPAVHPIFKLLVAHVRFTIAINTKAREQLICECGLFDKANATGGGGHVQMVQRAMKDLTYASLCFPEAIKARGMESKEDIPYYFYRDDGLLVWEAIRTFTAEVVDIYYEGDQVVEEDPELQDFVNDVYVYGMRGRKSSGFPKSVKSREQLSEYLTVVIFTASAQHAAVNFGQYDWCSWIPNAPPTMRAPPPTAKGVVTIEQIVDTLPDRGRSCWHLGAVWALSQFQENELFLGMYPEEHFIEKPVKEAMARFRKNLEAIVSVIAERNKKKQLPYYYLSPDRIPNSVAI
The experiment in a line: 5-LO inhibitory activity (leucotriene B4 formation in human peripheral blood mononuclear cells, A23187). Type of assay: cell-based. The settings on record: 30 μM A23187, read-out: Lipoxygenase inhibitory action 50% inhibitory concentration (IC50 μm) 5-LO. On the procedure:
5-LO inhibitory activity was measured using a variation of the method of Carter et al. (Carter G. W. et al., J. Pharmacol. Exp. Ther., 256, 929 to 937, 1991). Namely, after pre-incubating (37° C., 15 minutes) in Hank's solution human peripheral blood mononuclear cells and a test compound dissolved in DMSO (final concentration: 1%), 30 μM A23187 was added and the resulting solution was additionally incubated (37° C., 30 minutes). The resulting leucotriene B4 that formed was quantified by enzyme immunoassay, and the 50% formation inhibitory concentration (μM) of the test compound with respect to 5-LO was calculated from that value.

Assay [1] deals with lipid peroxides in retina homogenate. The experiment in a line: Retina migration: formation of lipid peroxides in retina ex vivo after oral administration. The arrangement: species or system rat. The settings on record: male SD rats, retinas removed 30 minutes later, auto-oxidized 1 hour at 37° C. On the procedure:
The retina migration of the compounds according to the present invention was evaluated. The test compounds dissolved or suspended in 0.1 N aqueous hydrochloric acid solution or 1% polyethylene hardened castor oil (Nikkol HCO-60) solution were orally administered to male SD rats (age: 6 weeks) in groups of three animals each followed by removing both eyes 30 minutes later and separating the retinas while cooling with ice. The retinas were homogenized with a Polytron Microhomogenizer (NS-310E: manufactured by Niti-On Medical and Physical Instruments) in 0.1 M Tris-HCl buffer (pH 7.4) while cooling with ice to prepare 5% homogenates. The homogenates were then auto-oxidized for 1 hour at 37° C., and the amounts of lipid peroxide that formed were quantified using the thiobarbituric acid method (Masugi, et al., Vitamin, 51, 21 to 29, 1977).

For assay [2], the system named is lipid peroxide in homogenates of brain, heart and kidneys. The experiment in a line: Tissue migration: antioxidative action on lipids ex vivo in tissue homogenates after intraperitoneal administration. The note with it: Rattus norvegicus, ip, 0.5 h, male SD rats, 100 mg/kg intraperitoneally, 30 minutes after administration. The protocol:
(§1) The antioxidative action on lipids in vitro of the compounds according to the present invention was evaluated in accordance with the method of Malvy et al. (Malvy C. et al.,) described in Biochemical and Biophysical Research Communications, 1980, vol. 95, pp. 734 to 737,) by measuring the lipid peroxide activity in a rat brain homogenate. Namely, the rat brain was removed followed by the addition of five volumes of an aqueous solution of phosphate buffered saline (pH 7.4) (hereinafter, abbreviated as PBS) to the brain while cooling with water, homogenizing with a Teflon homogenizer, and centrifuging for 20 minutes at 10,000 g to collect the supernatant as a brain homogenate. 500 μM cysteine, 5 μM ferrous sulfate, and 100 mM KCl were added to the resulting brain homogenate followed by incubating for 30 minutes at 37° C. and measuring the malondialdehyde that formed due to decomposition of lipid peroxide using the thiobarbituric acid method. The 50% inhibitory concentrations (hereinafter, abbreviated as IC50) of the compounds according to the present invention were then determined from the measured values.
Tissue migration of the compounds according to the present invention was evaluated by measuring the antioxidative action on lipids ex vivo. A test compound dissolved or suspended in an aqueous physiological saline solution or aqueous physiological saline solution containing 1% polyethylene hardened castor oil (Nikko Chemicals: Nikkol HCO-60) was intraperitoneally administered to male SD rats (age: 6 weeks) (purchased from Japan SLC) in groups of 3 animals each at a dose of 100 mg/kg. The animals were sacrificed by exsanguination by severing the carotid artery 30 minutes after administration followed by removing the brain, heart and kidneys. The lipid peroxide activity of homogenates of each tissue was measured using the method described in Example 3. The inhibition rates of the test compounds in each tissue were determined from the amounts of lipid peroxide formed in a control group (physiological saline dose group) and test compound groups.

In another assay the target is T2, 15-lipoxygenase (15-LO) (Oryctolagus cuniculus, UniProt P12530).
T2 construct: 15-LO obtained from rabbit reticulocytes; from tissue; host or cells: rabbit reticulocytes
T2 sequence (P12530 1-663): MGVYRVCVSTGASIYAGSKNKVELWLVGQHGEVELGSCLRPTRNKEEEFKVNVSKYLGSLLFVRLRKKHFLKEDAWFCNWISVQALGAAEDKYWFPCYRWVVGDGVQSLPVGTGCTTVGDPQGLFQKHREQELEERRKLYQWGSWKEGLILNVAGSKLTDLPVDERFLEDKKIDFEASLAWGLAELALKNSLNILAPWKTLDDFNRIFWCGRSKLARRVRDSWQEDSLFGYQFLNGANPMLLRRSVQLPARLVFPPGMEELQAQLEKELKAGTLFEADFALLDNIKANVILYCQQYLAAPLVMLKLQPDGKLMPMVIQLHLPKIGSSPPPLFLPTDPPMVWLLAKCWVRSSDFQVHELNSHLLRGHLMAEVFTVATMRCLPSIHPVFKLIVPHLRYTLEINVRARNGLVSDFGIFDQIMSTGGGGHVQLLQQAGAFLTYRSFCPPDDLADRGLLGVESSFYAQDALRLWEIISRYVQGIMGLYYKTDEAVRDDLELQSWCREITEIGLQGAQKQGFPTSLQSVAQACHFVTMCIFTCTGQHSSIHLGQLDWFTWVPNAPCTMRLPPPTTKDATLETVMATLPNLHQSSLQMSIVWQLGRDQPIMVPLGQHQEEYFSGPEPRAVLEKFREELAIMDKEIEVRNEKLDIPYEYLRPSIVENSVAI
The experiment in a line: 15-LO inhibitory activity (15-LO from rabbit reticulocytes, linoleic acid, 15-HETE formation). The note with it: 256 μM linoleic acid, 4° C., read-out: Lipoxygenase inhibitory action 50% inhibitory concentration (IC50 μm) 15-LO. Type of assay: biochemical. The protocol: 15-LO inhibitory activity was measured using a variation of the method of Auerbach et al. (Auerbach B. J. et al., Anal. Biochem., 201, 375 to 380, 1992). Namely, after pre-incubating (4° C., 15 minutes) in phosphate buffer (pH 7.4) 15-LO obtained from rabbit reticulocytes and a test compound dissolved in DMSO (final concentration: 1%), 256 μM linoleic acid was added and the resulting solution was additionally incubated (4° C., 10 minutes). The resulting 15-HETE that formed was quantified by spectrophotometry (OD660 nm), and the 50% formation inhibitory concentration (μM) of the test compound with respect to 15-LO was calculated from that value.

The test system of assay [3] is lipid peroxide in rat brain homogenate. In words: Antioxidative action on lipids in vitro (lipid peroxide activity in rat brain homogenate, thiobarbituric acid method). The note with it: 500 μM cysteine, 5 μM ferrous sulfate, 100 mM KCl, 30 minutes at 37° C., malondialdehyde, read-out: 50% inhibitory concentration of anti-lipid peroxide action in vitro (IC50). Type of assay: biochemical. On the procedure: as §1

Assay [4] deals with mice administered ferrous chloride into the spinal subarachnoid cavity. In words: Antioxidative action in vivo: abnormal behavior and mortality after ferrous chloride into the spinal subarachnoid cavity. Also noted: species or system mouse. The settings on record: male ICR mice, 30 minutes before ferrous chloride, score after 60 minutes. On the procedure:
The antioxidative action in vivo of the compounds according to the present invention was evaluated according to the method described in the Journal of Medical Chemistry (J. Med. Chem., 1997, vol. 40, pp. 559 to 573) based on the inhibitory effects on abnormal behavior and mortality rate following administration of ferrous chloride into the spinal subarachnoid cavity of mice. Male S1c:ICR mice (age: 5 weeks) (purchased from Japan SLC) were used in groups of 3 to 7 animals each, and were administered 5 μl of aqueous physiological saline solution containing 50 mM ferrous chloride into the spinal column between the 5th and 6th lumbar vertebra. […] The test compounds were dissolved or suspended in an aqueous physiological saline solution or an aqueous physiological saline solution containing 1% polyethylene hardened castor oil (manufactured by Nikko Chemicals CO., LTD. under the name of NIKKOL HCO-60), and administered intraperitoneally or orally 30 minutes before the administration of ferrous chloride. The 50% inhibitory dose (hereinafter, abbreviated as ID50) of each test compound was determined from the score of a control group (physiological saline treated group) and the score of each test compound treated group.

[5] abbreviates: brain, read-out: Inhibition rate of ex vivo anti-lipid peroxide action (%) Brain.
Where [6] appears, read: heart, read-out: Inhibition rate of ex vivo anti-lipid peroxide action (%) Heart.
The mark [7] stands for this setting: kidney, read-out: Inhibition rate of ex vivo anti-lipid peroxide action (%) Kidney.

`Cc1c(C)c2c(c(C)c1N)CC(C)(C(=O)Nc1ccc(-c3ccn[nH]3)cc1)O2` (stereo not drawn) [Compound 37]: the IC50 is 230 nM at 5-lipoxygenase (5-LO), 2060 nM on 15-lipoxygenase (15-LO) and 800 nM in assay [3]. Besides, the “Inhibitory effect on formation of lipid peroxides in retina ex vivo 30% inhibitory concentration (ID30 mg/kg, oral administration)” value in assay [1] amounted to 5.2 mg/kg. For the same compound, the inhibition at 100 mg/kg was 95% in assay [2] (setting [5]), 87% in assay [2] (setting [6]) and 89% in assay [2] (setting [7]). In addition, in assay [4], the “Antioxidative action in vivo 50% inhibitory dose (ID50 mg/kg) Intraperitoneal administration” value was found to be 12 mg/kg. Also, the “Antioxidative action in vivo 50% inhibitory dose (ID50 mg/kg) Oral administration” value in assay [4] came out at 27 mg/kg.

On to `Cc1c(C)c2c(c(C)c1O)CCC(C)(OC=Nc1ccc(-n3ccnc3)cc1)O2` (stereo not drawn) [Control drug 2, reference compound], for which the inhibition at 100 mg/kg turned out to be 45% in assay [2] (setting [5]), 57% in assay [2] (setting [6]) and 84% in assay [2] (setting [7]). In addition, the IC50 in assay [3] was found to be 230 nM. Besides, the “Antioxidative action in vivo 50% inhibitory dose (ID50 mg/kg) Intraperitoneal administration” value in assay [4] was determined as 20 mg/kg. In assay [4], the “Antioxidative action in vivo 50% inhibitory dose (ID50 mg/kg) Oral administration” value was 53 mg/kg.

`Cc1c(C)c2c(c(C)c1N)CC(C)(C(=O)Nc1ccc(-n3ccnc3)cc1)O2` (racemic) [Compound 1, (±)-(5-amino-2,4,6,7-tetramethyldihydrobenzofuran-2-yl)-N-[4-(imidazol-1-yl)phenyl]carboxamide]: the “Inhibitory effect on formation of lipid peroxides in retina ex vivo 30% inhibitory concentration (ID30 mg/kg, oral administration)” value in assay [1] turned out to be 16 mg/kg. The figures for the inhibition at 100 mg/kg in assay [2] (setting [5]), in assay [2] (setting [6]) and in assay [2] (setting [7]) were 83%, 80% and 87%, respectively. Besides, the “Antioxidative action in vivo 50% inhibitory dose (ID50 mg/kg) Intraperitoneal administration” value in assay [4] was found to be 6.8 mg/kg. Besides, the “Antioxidative action in vivo 50% inhibitory dose (ID50 mg/kg) Oral administration” value in assay [4] amounted to 9.7 mg/kg.

Regarding `Cc1c(C)c2c(c(C)c1O)CC(C)(OC=Nc1ccc(-n3ccnc3)cc1)O2` (stereo not drawn) [Control drug 1, reference compound], the inhibition at 100 mg/kg is 68% in assay [2] (setting [5]), 59% in assay [2] (setting [6]) and 75% in assay [2] (setting [7]). Moreover, the IC50 in assay [3] stood at 230 nM. The “Antioxidative action in vivo 50% inhibitory dose (ID50 mg/kg) Intraperitoneal administration” value in assay [4] is listed as greater than 30 mg/kg. Moreover, the “Antioxidative action in vivo 50% inhibitory dose (ID50 mg/kg) Oral administration” value in assay [4] is greater than 30 mg/kg.

Usually inhibition stands for the change of the read-out against control, counted positive when it falls.
